Laboratory results published in patent US20250003972A1, “A METHOD OF DETERMINING THE PRESENCE OF AN ANALYTE IN A SAMPLE” (Valitacell Limited, priority 2021, published 2025).

Test system: non-monomer IgG
Assay: DAOTA fluorescence polarisation (FP) assay: HMWS IgG (non-monomer) spiked into monomer IgG in culture media
Type: binding
Settings: cell culture media; FP (mP) signal vs percentage non-monomer
Procedure: Non-monomer IgG was sourced internally. This was obtained by size exclusion chromatography from Chinese Hamster Ovary (CHO) cell supernatant (this is a naturally occurring non-monomer IgG).
FP readings were made using an BMG Pherastar plate reader (BMG, […], Germany) in black half area NBS plates in a total of 120 ul (Corning, New York, USA).
For DAOTA FP assays, high molecular weight species (HMWS) of IgG (non-monomer) was spiked into monomer IgG in various proportions in 120 ul total of culture media (CD-CHO, ThermoFisher, UK) at a constant at a concentration of 200 mg/L. 0.1 ug of an N′-propyl, N-propyl derivative of diazaoxatriangulenium (N′PNP-DAOTA) was added, and the polarization signal was measured after 5 minutes incubation in the dark.

| binding to non-monomer IgG / IgG aggregates (FP polarisation signal) | Compound |
| --- | --- |
| binds to non-monomer IgG | CCCn1c2cccc3oc4cccc5c4[c+](c32)c2c1cccc2n5CCC [N′PNP-DAOTA, N′-propyl, N-propyl derivative of diazaoxatriangulenium] |
| did not bind to IgG aggregates | N-butanoic acid aza-di-oxa-triangulenium [N-Phenyl-ADOTA] |
